Earlier results, collected in patent US20130028962A1, “Triggered Cargo Release from Nanoparticle Stabilized Liposomes” (THE REGENTS OF THE UNIVERSITY OF CALIFORNIA, priority 2010, published 2013).

System: MRSA bacteria
Conditions: against MRSA bacteria

CN[C@H](CC(C)C)C(=O)N[C@H]1C(=O)N[C@@H](CC(N)=O)C(=O)N[C@H]2C(=O)N[C@H]3C(=O)N[C@H](C(=O)N[C@H](C(=O)O)c4cc(O)cc(O)c4-c4cc3ccc4O)[C@H](O)c3ccc(c(Cl)c3)Oc3cc2cc(c3O[C@@H]2O[C@H](CO)[C@@H](O)[C@H](O)[C@H]2O[C@H]2C[C@](C)(N)[C@H](O)[C@H](C)O2)Oc2ccc(cc2Cl)[C@H]1O [vancomycin]
minimal inhibitory concentration (MIC): about 2 μg/mL
